From PMC6470589, “Contribution of Molecular Structure to Self-Assembling and Biological Properties of Bifunctional Lipid-Like 4-(N-Alkylpyridinium)-1,4-Dihydropyridines” (Pharmaceutics, 2019)

Tests used:
[1] = system: transgenic Alzheimer's disease female mice; design: method as in PMID 27345857; conditions: cited from earlier work
[2] = system: DPPC (1,2-dipalmitoyl-sn-glycero-3-phosphocholine) vesicles with DPH probe; assay: Phospholipid binding assay (quenching of DPH fluorescence); conditions: DPPC 2 × 10^−5 M, DPH 5 × 10^−6 M, 1,4-DHP 5 × 10^−5 M
Experimental: Binding studies of the 4-(N-alkylpyridinium)-1,4-DHP derivatives 1–11 with phospholipid were carried out in Tris-buffered saline (TBS) buffer (10 mM of Tris, 150 mM of NaCl, pH 7.4) by a fluorescence probe technique using a modified protocol described by Ma et al.. Briefly, 1,2-dipalmitoyl-sn-glycero-3-phosphocholine (DPPC) vesicles dispersed in TBS buffer were prepared by sonication of the lipid solution using a probe sonifier for 30 min. The concentration of DPPC stock solution was 6 × 10^−5 M; the concentration of the stock solutions of the 4-(N-alkylpyridinium)-1,4-DHP derivatives were 1.5 × 10^−4 M.
To characterise the hydrophobic interaction between the 1,4-DHP and phospholipids, 1,6-diphenyl-1,3,5-hexatriene (DPH) was used as a fluorescence probe. […]
Mixtures containing 40 µL of DPPC stock solution (6 × 10^−5 M) and 40 µL of DPH diluted stock solution (15 × 10^−6 M) were incubated at 50 °C for 0.5 h in the dark; then, an aliquot of 4-(N-alkylpyridinium)-1,4-DHP derivatives was added with the following incubation at 50 °C for 0.5 h in the dark, after which samples were cooled to room temperature and the fluorescence intensity was measured by a Tecan multiplate reader Infinite1000 (Tecan Austria GmbH, Salzburg, Austria). […]

[3] = design: method as in PMID 26042808; conditions: cited from earlier work

In the case of `CCCCCCCCCCCC[n+]1cccc(C2C(C(=O)OCC)=C(C)NC(C)=C2C(=O)OCC)c1` [Compound 3], the Memory-improving anxiolytic effects [1] is listed as “memory-improving anxiolytic effects”, the “Quenching of the fluorescence of the DPH-DPPC system” value [2] is listed as “lowest relative fluorescence intensity” and the “Blood–brain barrier crossing” value [3] is listed as “crossed the blood–brain barrier”.
